Each compound was assayed against Prothrombin (Homo sapiens, UniProt P00734).

Structure (SMILES)	Ki
N=C(N)N1CCC[C@H](NC(=O)CN2CCC[C@@](N)(Cc3ccccc3)C2=O)C1O (stereo partly drawn)	1 nM
CCOC(=O)[C@]1(NS(=O)(=O)Cc2ccccc2)CCCN(CC(=O)N[C@H]2CCCN(C(=N)N)C2O)C1=O (stereo partly drawn)	1 nM
N=C(N)N1CCC[C@H](NC(=O)CN2CCC[C@H](NS(=O)(=O)Cc3ccccc3)C2=O)C1O (stereo partly drawn)	1 nM
